Measured values taken from PubChem BioAssay (NCI).
Several values for one entry are separate records, joined by “and”; a condition that tells them apart may be missing. Equal values may be shown once.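 The compound was tested at five concentrations on cells cultured in 96-well plates, with a 48-hour exposure period. Abbreviation: GI50, concentration required for 50% inhibition of growth. The concentration for full growth arrest is given as TGI.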

Assays:
Assay in all cases: NCI anticancer screen, dose series, 48 h
[1] = test system: 786-0 renal
[2] = test system: A498 renal
[3] = test system: A549 NSCLC
[4] = test system: ACHN renal
[5] = test system: BT-549 breast
[6] = test system: CAKI-1 renal
[7] = test system: CCRF-CEM leukemia
[8] = test system: COLO 205 colon
[9] = test system: DU-145 prostate
[10] = test system: EKVX NSCLC
[11] = test system: HCC-2998 colon
[12] = test system: HCT-116 colon
[13] = test system: HCT-15 colon
[14] = test system: HL-60(TB) leukemia
[15] = test system: HOP-62 NSCLC
[16] = test system: HOP-92 NSCLC
[17] = test system: HS 578T breast
[18] = test system: HT29 colon
[19] = test system: IGROV1 ovarian
[20] = test system: K-562 leukemia
[21] = test system: KM12 colon
[22] = test system: LOX IMVI melanoma
[23] = test system: M14 melanoma
[24] = test system: MALME-3M melanoma
[25] = test system: MCF7 breast
[26] = test system: MDA-MB-231 breast
[27] = test system: MDA-MB-435
[28] = test system: MOLT-4 leukemia
[29] = test system: NCI-H226 lung
[30] = test system: NCI-H23 lung
[31] = test system: NCI-H460 lung
[32] = test system: NCI-H522 lung
[33] = test system: NCI/ADR-RES ovarian
[34] = test system: OVCAR-3 ovarian
[35] = test system: OVCAR-4 ovarian
[36] = test system: OVCAR-5 ovarian
[37] = test system: OVCAR-8 ovarian
[38] = test system: PC-3 prostate
[39] = test system: RPMI-8226 leukemia
[40] = test system: RXF 393 renal
[41] = test system: SF-268 CNS
[42] = test system: SF-295 CNS
[43] = test system: SF-539 CNS
[44] = test system: SK-MEL-2 melanoma
[45] = test system: SK-MEL-28 melanoma
[46] = test system: SK-MEL-5 melanoma
[47] = test system: SK-OV-3 ovarian
[48] = test system: SN12C renal
[49] = test system: SNB-19 CNS
[50] = test system: SNB-75 CNS
[51] = test system: SR leukemia
[52] = test system: SW-620 colon
[53] = test system: T-47D breast
[54] = test system: TK-10 renal
[55] = test system: U251 CNS
[56] = test system: UACC-257 melanoma
[57] = test system: UACC-62 melanoma
[58] = test system: UO-31 renal

SMILES: O=C(NC[C@H](O)CO)c1ccncc1Nc1ccc(I)cc1F
- GI50 [1]: > 10 µM and 6.21 µM
- TGI [1]: > 100 µM
- GI50 [2]: 0.03 µM and 0.0394 µM
- TGI [2]: 0.417 µM and 0.517 µM
- GI50 [3]: 0.694 µM and 1.79 µM
- TGI [3]: > 75.8 µM
- GI50 [4]: > 2.47 µM and 6.98 µM
- TGI [4]: > 100 µM
- GI50 [5]: > 10 µM and 23.3 µM
- TGI [5]: > 95 µM
- GI50 [6]: 0.59 µM and 1.38 µM
- TGI [6]: > 100 µM
- GI50 [7]: > 100 µM
- TGI [7]: > 100 µM
- GI50 [8]: 0.00323 µM and < 0.01 µM
- TGI [8]: > 100 µM
- GI50 [9]: > 10 µM and 17.8 µM
- TGI [9]: > 100 µM
- GI50 [10]: 0.194 µM and 0.313 µM
- TGI [10]: > 100 µM
- GI50 [11]: 0.00358 µM and 0.019 µM
- TGI [11]: > 8.4 µM and 9.22 µM
- GI50 [12]: 0.0556 µM and 0.104 µM
- TGI [12]: > 100 µM
- GI50 [13]: 3.53 µM and 5.62 µM
- TGI [13]: > 100 µM
- GI50 [14]: 0.00228 µM and < 0.01 µM
- TGI [14]: > 54.2 µM
- GI50 [15]: 0.0472 µM and 0.298 µM
- TGI [15]: > 94 µM
- GI50 [16]: 0.0509 µM and 0.0379 µM
- TGI [16]: 1.2 µM and 3.61 µM
- GI50 [17]: > 64.1 µM
- TGI [17]: > 100 µM
- GI50 [18]: 0.00409 µM and < 0.011 µM
- TGI [18]: > 38.7 µM
- TGI [19]: > 100 µM
- GI50 [20]: 1.32 µM and 4.26 µM
- TGI [20]: > 100 µM
- GI50 [21]: 0.111 µM and 0.154 µM
- TGI [21]: > 100 µM
- TGI [22]: > 10 µM and 22.4 µM
- GI50 [23]: 0.0031 µM and < 0.01 µM
- TGI [23]: > 3.52 µM and 10.8 µM
- GI50 [24]: 0.00242 µM and < 0.01 µM
- TGI [24]: 0.0972 µM and < 0.0162 µM
- GI50 [25]: > 10 µM and 15.5 µM
- TGI [25]: > 100 µM
- GI50 [26]: 0.154 µM and 0.348 µM
- TGI [26]: > 10 µM and 46.7 µM
- GI50 [27]: 0.00907 µM and 0.0257 µM
- TGI [27]: > 100 µM
- GI50 [28]: > 79.9 µM
- TGI [28]: > 100 µM
- GI50 [29]: > 6.36 µM and 1.4 µM
- TGI [29]: > 100 µM
- GI50 [30]: 0.0913 µM and 0.0707 µM
- TGI [30]: > 71.8 µM
- GI50 [31]: > 10 µM and 11.8 µM
- TGI [31]: > 100 µM
- GI50 [32]: 4.95 µM and 33.2 µM
- TGI [32]: > 100 µM
- GI50 [33]: > 10 µM and 35 µM
- TGI [33]: > 100 µM
- GI50 [34]: > 10 µM and 20.1 µM
- TGI [34]: > 100 µM
- GI50 [35]: > 7.46 µM and 10.6 µM
- TGI [35]: > 100 µM
- GI50 [36]: 0.0104 µM and 0.0151 µM
- TGI [36]: > 100 µM
- GI50 [37]: > 10 µM and 37.4 µM
- TGI [37]: > 100 µM
- GI50 [38]: > 10 µM and 61 µM
- TGI [38]: > 100 µM
- GI50 [39]: > 10 µM and 28.4 µM
- TGI [39]: > 100 µM
- GI50 [40]: 0.678 µM and 1.6 µM
- TGI [40]: > 10 µM and 29.1 µM
- GI50 [41]: > 10 µM and 29.9 µM
- TGI [41]: > 100 µM
- GI50 [42]: > 41 µM
- TGI [42]: > 100 µM
- GI50 [43]: > 10 µM and 23.2 µM
- TGI [43]: > 100 µM
- GI50 [44]: 0.00484 µM and < 0.01 µM
- TGI [44]: 0.0923 µM and 0.0599 µM
- GI50 [45]: 0.00334 µM and < 0.0104 µM
- GI50 [46]: 7.7 µM
- TGI [46]: > 100 µM
- GI50 [47]: > 4.46 µM and 26.2 µM
- TGI [47]: > 100 µM
- GI50 [48]: > 7.13 µM and 7.74 µM
- TGI [48]: > 100 µM
- GI50 [49]: > 10 µM and 21.2 µM
- TGI [49]: > 100 µM
- GI50 [50]: > 10 µM and 33.2 µM
- TGI [50]: > 100 µM
- GI50 [51]: > 10 µM and 52.4 µM
- TGI [51]: > 100 µM
- GI50 [52]: 0.0144 µM and 0.0188 µM
- TGI [52]: > 100 µM
- GI50 [53]: > 10 µM and 19.3 µM
- TGI [53]: > 100 µM
- TGI [54]: > 100 µM
- GI50 [55]: 1.84 µM and 4.92 µM
- TGI [55]: > 100 µM
- GI50 [56]: 0.00359 µM and < 0.01 µM
- TGI [56]: 0.0403 µM and 0.0438 µM
- GI50 [57]: 0.00248 µM and < 0.01 µM
- TGI [57]: 0.0292 µM
- GI50 [58]: 0.2 µM and 0.988 µM
- TGI [58]: > 10 µM and 20.3 µM
